Experimental data published in patent publication US7371741B2, “Estradiol derivatives and pharmaceutical compositions using same” (EntreMed, Inc., priority 2003, dated 2008).

Key:
Type in all cases: cell-based
[1] = system: MDA-MB-231: breast cancer; assay: In vitro anti-proliferative activity, BrdU incorporation, MDA-MB-231; conditions: MDA-MB-231 cells, 50% inhibition of proliferation, BrdU incorporation into DNA
Description: (§1) Determination of in vitro anti-proliferative activity of substituted estradiol analogs: In vitro anti-proliferative or anti-mitogenic activity was determined using a commercially available cell-based assay in 96-well tissue culture plates with assessment of proliferation by evaluating DNA synthesis through incorporation into DNA of immuno-reactive (BrdU) nucleotides. The cell types used are commercially available (MDA-MB-231: breast cancer; U87-MG: glioblastoma; PC3: prostate cancer; HUVEC: non-transformed early passage human umbilical vein endothelial cells). These assays, and the many assay variations possible to determine in vitro anti-proliferative or anti-mitogenic activity, are well known to those skilled in the art. The concentration which causes 50% inhibition of proliferation (IC50) was estimated from a dose-response curve generally carried out with a range of concentrations from ≧100 microg/mL to ≦0.01 microg/mL.

[2] = system: HUVEC: non-transformed early passage human umbilical vein endothelial cells; assay: In vitro anti-proliferative activity, BrdU incorporation, HUVEC; conditions: 50% inhibition of proliferation, BrdU incorporation into DNA
Description: as §1

U87-MG: glioblastoma = assay: In vitro anti-proliferative activity, BrdU incorporation, U87-MG; conditions: U87-MG cells, 50% inhibition of proliferation, BrdU incorporation into DNA
Description: as §1

PC3: prostate cancer = assay: In vitro anti-proliferative activity, BrdU incorporation, PC3; conditions: PC3 cells, 50% inhibition of proliferation, BrdU incorporation into DNA
Description: as §1

| Structure (SMILES) | IC50 ([1]; Homo sapiens) [nM] | IC50 ([2]; Homo sapiens) [nM] | IC50 (U87-MG: glioblastoma; Homo sapiens, U-87 MG) [µM] | IC50 (PC3: prostate cancer; Homo sapiens, PC-3) [nM] | IC50 [1] [nM] | IC50 [2] [nM] | IC50 (U87-MG: glioblastoma) [µM] | IC50 (PC3: prostate cancer) [nM] |
| --- | --- | --- | --- | --- | --- | --- | --- | --- |
| CCOc1cc2c(cc1O)CC[C@@H]1[C@@H]2CC[C@]2(C)C(O)CC[C@@H]12 (some centres unmarked) [Compound 2, 2-Ethoxyestra-1,3,5(10)-trien-3,17-diol] | 650 ± 230 | 140 ± 70 |  |  |  |  |  |  |
| CC#Cc1cc2c(cc1O)CCC1C2CC[C@@]2(C)C1CC[C@@H]2O (some centres unmarked) [Compound 3] | 3990 ± 1120 | 520 ± 140 | 2.68 ± 0.22 | 2220 ± 130 |  |  |  |  |
| COc1cc2c(cc1O)CC[C@@H]1[C@@H]2CC[C@]2(C)C(=O)CC[C@@H]12 [Compound 4, 2-methoxyestra-1,3,5(10)-trien-3-ol-17-one, reference compound] | 11700 | 12600 | 10.5 | 13700 |  |  |  |  |
| COc1cc2c(cc1O)CC[C@@H]1[C@@H]2CC[C@]2(C)CCC[C@@H]12 [Compound 7, 2-methoxyestra-1,3,5(10)-triene-3-ol] | 2200 ± 520 | 1320 ± 560 | 7.35 ± 0.43 | 8490 ± 2490 |  |  |  |  |
| C=C1CC[C@H]2[C@@H]3CCc4cc(O)c(OC)cc4[C@H]3CC[C@]12C [Compound 10, 2-methoxy-17(20)-methyleneestra-1,3,5(10)-triene-3-ol] |  |  |  |  | 580 ± 310 | 260 ± 230 |  |  |
| CC=C1CCC2C3CCc4cc(O)c(OC)cc4C3CCC12C (centres unmarked) [Compound 13, 2-Methoxy-19-norpregna-1,3,5(10)17(20)-tetraene-3-ol] |  |  |  |  | 2630 ± 200 | 370 ± 80 | 2.37 ± 0.34 | 1150 ± 400 |
| COc1cc2c(cc1O)CC[C@@H]1[C@@H]2CC[C@]2(C)[C@@H](C)CC[C@@H]12 [Compound 16, 2-methoxy-17β-methylestra-1,3,5(10)-triene-3-ol] | 3330 ± 230 | 2400 ± 450 | 9.39 ± 0.43 | 6460 ± 2310 |  |  |  |  |
| COc1cc2c(cc1OS(N)(=O)=O)CC[C@@H]1[C@@H]2CC[C@]2(C)C(=O)CC[C@@H]12 [Compound 19, 3-sulfamate-2-methoxyestra-1,3,5(10)-trien-17-one] |  |  |  |  | 600 ± 430 | 180 ± 40 | 0.8 ± 0.23 | 510 ± 240 |
| CCOc1cc2c(cc1OS(N)(=O)=O)CC[C@@H]1[C@@H]2CC[C@]2(C)C(=O)CC[C@@H]12 [Compound 20, 3-sulfamate-2-ethoxyestra-1,3,5(10)-trien-17-one] |  |  |  |  | 7520 ± 2040 | 2590 ± 250 | 19.8 ± 2.32 | 8930 ± 610 |
| C=Cc1cc2c(cc1OC)[C@H]1CC[C@]3(C)C(=O)CC[C@H]3[C@@H]1CC2 [Compound 25, 2-methoxy-3-(vinyl)estra-1,3,5(10)-triene-17-one] | 2570 ± 290 | 580 ± 10 | 2.2 ± 0.06 | 1430 ± 400 |  |  |  |  |
| C=Cc1cc2c(cc1OC)[C@H]1CC[C@]3(C)[C@@H](O)CC[C@H]3[C@@H]1CC2 [Compound 25a, 2-methoxy-3-(vinyl)estra-1,3,5(10)-triene-17β-ol] | 8930 ± 610 | 1960 ± 50 | 7.81 ± 1.3 | 6340 ± 80 |  |  |  |  |
| COc1cc2c(cc1C(=O)O)CC[C@@H]1[C@@H]2CC[C@]2(C)C(=O)CC[C@@H]12 [Compound 28, 2-methoxy-3-(carboxylic acid)estra-1,3,5(10)-triene-17-one] |  |  |  |  | > 100000 | > 100000 | > 100 | > 100000 |
| COc1cc2c(cc1C(N)=O)CC[C@@H]1[C@@H]2CC[C@]2(C)C(=O)CC[C@@H]12 [Compound 31, 2-methoxy-3-carboxamideestra-1,3,5(10)-triene-17-one] |  |  |  |  | 700 ± 120 | 790 ± 200 | 1.07 ± 0.15 | 700 ± 30 |
| COc1cc2c(cc1N)CC[C@@H]1[C@@H]2CC[C@]2(C)C(=O)CC[C@@H]12 [Compound 34, 3-amino-2-methoxyestra-1,3,5(10)-trien-17-one] | 46900 ± 8150 | 23400 ± 4140 | 81.5 ± 20.4 | > 100000 |  |  |  |  |
| CCOc1cc2c(cc1N)CC[C@@H]1[C@@H]2CC[C@]2(C)C(=O)CC[C@@H]12 [Compound 35, 3-Amino-2-ethoxyestra-1,3,5(10)-trien-17-one] | 10600 ± 2980 | 16500 ± 2020 | 26.1 ± 1.4 | 9250 ± 1580 |  |  |  |  |
| COc1cc2c(cc1F)CC[C@@H]1[C@@H]2CC[C@]2(C)C(=O)CC[C@@H]12 [Compound 40, 3-fluoro-2-methoxyestra-1,3,5(10)-trien-17-one] | 2940 ± 800 | 2100 ± 230 | 26 ± 3.38 | 9260 ± 730 |  |  |  |  |
| COc1cc2c(cc1NC=O)CC[C@@H]1[C@@H]2CC[C@]2(C)C(O)CC[C@@H]12 (some centres unmarked) [Compound 43, 3-Formamide-2-methoxyestra-1,3-5(10)-trien-17-ol] |  |  |  |  | 780 ± 10 | 70 ± 20 | 2.7 ± 0.22 | 1340 ± 20 |
| COc1cc2c(cc1NC=O)CC[C@@H]1[C@@H]2CC[C@]2(C)C(=O)CC[C@@H]12 [Compound 43A, 3-formamide-2-methoxyestra-1,3,5(10)-triene-17-one] |  |  |  |  | 1220 ± 600 | 530 ± 220 | 0.94 ± 0.09 | 610 ± 270 |
| CCOc1cc2c(cc1NC=O)CC[C@@H]1[C@@H]2CC[C@]2(C)C(=O)CC[C@@H]12 [Compound 44A, 3-Formamide-2-ethoxyestra-1,3-5(10)-trien-17-one] |  |  |  |  | 24900 ± 5630 | 13200 ± 2200 | 21.1 | 27700 ± 620 |
| COc1cc2c(cc1OS(N)(=O)=O)CC[C@@H]1[C@@H]2CC[C@]2(C)CCC[C@@H]12 [Compound 46, 3-sulfamate-2-methoxyestra-1,3,5(10)-triene] |  |  |  |  | 380 ± 150 | 210 ± 150 | 0.72 ± 0.04 | 380 ± 210 |
| C=Cc1cc2c(cc1OC)[C@H]1CC[C@]3(C)CCC[C@H]3[C@@H]1CC2 [Compound 52, 3-Vinyl-2-methoxyestra-1,3,5(10)-triene] | 1860 ± 220 | 580 ± 40 | 3.14 ± 0.52 | 2120 ± 640 |  |  |  |  |
| COc1cc2c(cc1C(N)=O)CC[C@@H]1[C@@H]2CC[C@]2(C)CCC[C@@H]12 [Compound 58, (2-Methoxyestra-1,3,5(10)-trien-3-yl)-3-carboxamide] |  |  |  |  | 5230 ± 1950 | 1420 ± 410 | 4.52 ± 1.3 | 2580 ± 360 |
| COc1cc2c(cc1N)CC[C@@H]1[C@@H]2CC[C@]2(C)CCC[C@@H]12 [Compound 61, 3-amino-2-methoxyestra-1,3,5(10)-triene] | 7620 ± 430 | 6430 ± 1320 | 10.2 ± 3.78 | 8630 ± 180 |  |  |  |  |
| COc1cc2c(cc1NC=O)CC[C@@H]1[C@@H]2CC[C@]2(C)CCC[C@@H]12 [Compound 64, 3-formamide-2-methoxyestra-1,3,5(10)-triene] |  |  |  |  | 8290 ± 1640 | 5800 ± 730 | 23.2 ± 2 | 9240 ± 590 |
| C=C1CC[C@H]2[C@@H]3CCc4cc(OS(N)(=O)=O)c(OC)cc4[C@H]3CC[C@]12C [Compound 70, 17-methylene-3-sulfamate-2-methoxyestra-1,3,5(10)-triene] |  |  |  |  | 560 ± 20 | 580 ± 30 | 0.7 ± 0.06 | 910 ± 320 |
| C=C1CC[C@H]2[C@@H]3CCc4cc(OS(=O)(=O)C(F)(F)F)c(OC)cc4[C@H]3CC[C@]12C [Compound 73, 3-triflic-17-methylene-2-methoxyestra-1,3,5(10)-triene] |  |  |  |  | > 100000 | > 100000 | > 100 | > 100000 |
| C=C1CC[C@H]2[C@@H]3CCc4cc(C(N)=O)c(OC)cc4[C@H]3CC[C@]12C [Compound 82, 2-Methoxy-17-methyleneestra-1,3,5(10)-triene-3-carboxamide] | 190 ± 80 | 120 ± 60 | 0.25 ± 0.02 | 250 ± 10 |  |  |  |  |
